pIC50: −log10 of the molar value.
Experiments:
[1] = tested on: PXF 1752L; assay: Monolayer Assay, PI: PXF 1752L (Pleuramesothelioma); format: cell-based, human
Source text: (§1) This example illustrates cell proliferation data in the form of IC50, IC70 and IC90 values obtained by exposure of human cancer cell-lines to compound (Ia). […].

[2] = tested on: UXF 1138L; assay: Monolayer Assay, PI: UXF 1138L (Uterus Body); format: cell-based, human
Source text: as §1

[3] = tested on: IFN γ secretion in Con-A activated naive mouse splenocytes; assay: IFN γ secretion in Con-A activated naive mouse splenocytes; format: cell-based; details: FIG. 3B
Source text: This example illustrates IFN y secretion data obtained by separately administering different concentrations of compound (Ia), paroxetine, citalopram, and ecitalopram to Con-A activated naive mouse splenocytes. The results are depicted in FIG. 3B.

[4] = tested on: c-jun and p-c-jun expression in HaCat cells; assay: Western blot of c-jun and p-c-jun expression in HaCat cells; format: cell-based, human; details: 15 μM, 1 hr
Source text: For each sample 2×10^7 cells were used. The cells were lysed, and equal amounts of protein was fractionated on polyacrylamide gel and then transferred to PVDF membrane. The amount of the protein was detected by immuno-blotting with monoclonal anti-c-Jun or p-c-Jun antibodies (Cayman, Ann Arbor, Mich., USA). A second antibody conjugated to horseradish peroxidase was used and visualized with chemiluminescent Kit (Pierce, Rockford, Ill., USA) on film. […] Activation of the […] pathway produces p-c-Jun as a major end, while initiating apoptosis in certain cell-lines.

[5] = tested on: CNXF 498NL; assay: Monolayer Assay, PI: CNXF 498NL; format: cell-based, human
Source text: as §1

[6] = tested on: LXF 289L; assay: Monolayer Assay, PI: LXF 289L (Lung); format: cell-based, human
Source text: as §1

[7] = tested on: CEM/C1 cell-lines (camptothecin resistant human T-cell leukemia); assay: Viability of CEM/C1 cell-line, alamar blue; format: cell-based; details: 1-30 μM
Source text: This cell-line is a camptothecin (CPT) resistant derivative of the human T-cell leukemia purchased from ATCC (USA). […] The results are depicted in FIG. 14. Each point represents the mean+/−SEM of 4 determinations.

[8] = tested on: Caspase 3 activity in human Jurkat lymphoma cells; assay: Caspase 3 activity in human Jurkat lymphoma cell-line, fluorimetric Ac-DEVD-AMC; format: cell-based; details: 4 hr after exposure, compared to vehicle treated cells
Method: This example illustrates Caspase 3 activity data obtained by administering compound (Ia) to a human Jurkat lymphoma cell-line. The results are depicted FIG. 8A. Each point is the mean of 2 determinations.
Caspase 3 activity was measured by an enzymatic fluorimetric method using a fluorigenic substrate (Ac-DEVD-AMC), which produces blue fluorescence detected at 360 nm wavelength. See Garcia-Calvo et al., J Biol Chem, 273(49), 32608-13 (1998). When AMC is cleaved from the substrate by caspase-3, and caspase-3-like enzymes, it produces a yellow-green fluorescence, which can be monitored by a fluorimeter at 460 nm. The amount of yellow green fluorescence is proportional to the activity of caspase-3 in the cell extract sample.
The human Jurkat lymphoma cell-line, as used in FIG. 8A, and the human MDR colon cancer LS1034 lysates, as used in FIG. 8B, were prepared by Triton X-100 extraction 4 hr after exposure to the applicable compound (10 or 20 μM) or the vehicle. Whole cell lysate was added to a buffer containing 100 μM peptide substrate, 100 mM HEPES, 10% glycerol, 1 mM EDTA and 10 mM dithiothreitol. Measurements were taken every 5 min for 80 min. These experiments were also monitored in the presence of a specific caspase-3 inhibitor, DEVD-AMC-CHO, which was added after 45 or 60 min to the reaction mixture, to ascertain the specificity of the enzyme.

[9] = tested on: OVXF 899L; assay: Monolayer Assay, PI: OVXF 899L (Ovarian Cancer); format: cell-based, human
Source text: as §1

[10] = tested on: resistant colon carcinoma LS1034 cell-line; assay: Viability of resistant colon carcinoma LS1034 cell-line (FIG. 7A); format: cell-based; details: LS-1034, read-out: IC50, inhibition of cell viability
Source text: This example illustrates cell viability data obtained by separately administering different concentrations of compound (Ia), sertraline, paroxetine, and doxorubicin to a […] resistant colon carcinoma LS1034 cell-line. The results are depicted in FIG. 7A.

[11] = tested on: PRXF DU145; assay: Monolayer Assay, PI: PRXF DU145 (Prostate); format: cell-based, human
Source text: as §1

[12] = tested on: GXF 251L; assay: Monolayer Assay, PI: GXF 251L (Gastric); format: cell-based, human
Source text: as §1

For `CN[C@H]1CC[C@@H](c2ccc(Cl)c(Cl)c2)c2ccc(C#CCCCO)cc21` [compound (Ia), (1S-cis)-4-(3,4-dichlorophenyl)-7-(5-hydroxy-1-pentyn-1-yl)-1,2,3,4-tetrahydro-N-methyl-1-naphthalenamine hydroiodide], the “Test/Control (%)” value ([1]; 2.3 μg/ml) was 81%, the Test/Control activity class ([1]; 2.3 μg/ml) was “− (− (T/C = 50))” and the “Test/Control (%)” value ([1]; 7.5 μg/ml) was 27%. For the same molecule, the Test/Control activity class ([1]; 7.5 μg/ml) was “++ (++ (10 <= T/C < 30))”, the “Test/Control (%)” value ([1]; 23. μg/ml) was 5% and the Test/Control activity class ([1]; 23. μg/ml) was “+++ (+++ (T/C < 10))”. The “Test/Control (%)” value ([1]; 75. μg/ml) was 3%, the Test/Control activity class ([1]; 75. μg/ml) was “+++ (+++ (T/C < 10))” and the “Test/Control (%)” value ([1]; .75 μg/ml) was 99%. The Test/Control activity class ([1]; .75 μg/ml) was “− (− (T/C = 50))”, the “Test/Control (%)” value ([2]; 2.3 μg/ml) was 103% and the Test/Control activity class ([2]; 2.3 μg/ml) was “− (− (T/C = 50))”. The “Test/Control (%)” value ([2]; 7.5 μg/ml) was 3%, the Test/Control activity class ([2]; 7.5 μg/ml) was “+++ (+++ (T/C < 10))” and the “Test/Control (%)” value ([2]; 23. μg/ml) was 2%. For the same molecule, the Test/Control activity class ([2]; 23. μg/ml) was “+++ (+++ (T/C < 10))”, the “Test/Control (%)” value ([2]; 75. μg/ml) was 3% and the Test/Control activity class ([2]; 75. μg/ml) was “+++ (+++ (T/C < 10))”. For the same molecule, the “Test/Control (%)” value ([2]; .75 μg/ml) was 102%, the Test/Control activity class ([2]; .75 μg/ml) was “− (− (T/C = 50))” and the “IFN γ secretion inhibitory activity” value [3] was “greater IFN γ secretion inhibitory activity than paroxetine, citalopram, and ecitalopram”. For the same molecule, the “effect on c-Jun / p-c-Jun (MAPK pathway)” value [4] was “activation of the c-Jun-N-terminal kinase (JNK) pathway”, the “Test/Control (%)” value ([5]; 2.3 μg/ml) was 101% and the Test/Control activity class ([5]; 2.3 μg/ml) was “− (− (T/C = 50))”. The “Test/Control (%)” value ([5]; 7.5 μg/ml) was 5%, the Test/Control activity class ([5]; 7.5 μg/ml) was “+++ (+++ (T/C < 10))” and the “Test/Control (%)” value ([5]; 23. μg/ml) was 3%. The Test/Control activity class ([5]; 23. μg/ml) was “+++ (+++ (T/C < 10))”, the “Test/Control (%)” value ([5]; 75. μg/ml) was 1% and the Test/Control activity class ([5]; 75. μg/ml) was “+++ (+++ (T/C < 10))”. For the same molecule, the “Test/Control (%)” value ([5]; .75 μg/ml) was 97%, the Test/Control activity class ([5]; .75 μg/ml) was “− (− (T/C = 50))” and the “Test/Control (%)” value ([6]; 2.3 μg/ml) was 101%. For the same molecule, the Test/Control activity class ([6]; 2.3 μg/ml) was “− (− (T/C = 50))”, the “Test/Control (%)” value ([6]; 7.5 μg/ml) was 42% and the Test/Control activity class ([6]; 7.5 μg/ml) was “+ (+ (30 <= T/C < 50))”. For the same molecule, the “Test/Control (%)” value ([6]; 23. μg/ml) was 4%, the Test/Control activity class ([6]; 23. μg/ml) was “+++ (+++ (T/C < 10))” and the “Test/Control (%)” value ([6]; 75. μg/ml) was 3%. For the same molecule, the Test/Control activity class ([6]; 75. μg/ml) was “+++ (+++ (T/C < 10))”, the “Test/Control (%)” value ([6]; .75 μg/ml) was 94% and the Test/Control activity class ([6]; .75 μg/ml) was “− (− (T/C = 50))”. For the same molecule, the pIC50 [7] was 5.05, the “Caspase 3 activity” value [8] was “increase in the activity of the caspase-3” and the “Test/Control (%)” value ([9]; 2.3 μg/ml) was 94%. The Test/Control activity class ([9]; 2.3 μg/ml) was “− (− (T/C = 50))”, the “Test/Control (%)” value ([9]; 7.5 μg/ml) was 10% and the Test/Control activity class ([9]; 7.5 μg/ml) was “++ (++ (10 <= T/C < 30))”. The “Test/Control (%)” value ([9]; 23. μg/ml) was 3%, the Test/Control activity class ([9]; 23. μg/ml) was “+++ (+++ (T/C < 10))” and the “Test/Control (%)” value ([9]; 75. μg/ml) was 4%. The Test/Control activity class ([9]; 75. μg/ml) was “+++ (+++ (T/C < 10))”, the “Test/Control (%)” value ([9]; .75 μg/ml) was 100% and the Test/Control activity class ([9]; .75 μg/ml) was “− (− (T/C = 50))”. The pIC50 [10] was 4.95, the “Test/Control (%)” value ([11]; 2.3 μg/ml) was 94% and the Test/Control activity class ([11]; 2.3 μg/ml) was “− (− (T/C = 50))”. The “Test/Control (%)” value ([11]; 7.5 μg/ml) was 4%, the Test/Control activity class ([11]; 7.5 μg/ml) was “+++ (+++ (T/C < 10))” and the “Test/Control (%)” value ([11]; 23. μg/ml) was 1%. For the same molecule, the Test/Control activity class ([11]; 23. μg/ml) was “+++ (+++ (T/C < 10))”, the “Test/Control (%)” value ([11]; 75. μg/ml) was 1% and the Test/Control activity class ([11]; 75. μg/ml) was “+++ (+++ (T/C < 10))”. The “Test/Control (%)” value ([11]; .75 μg/ml) was 102%, the Test/Control activity class ([11]; .75 μg/ml) was “− (− (T/C = 50))” and the “Test/Control (%)” value ([12]; 2.3 μg/ml) was 80%. The Test/Control activity class ([12]; 2.3 μg/ml) was “− (− (T/C = 50))”, the “Test/Control (%)” value ([12]; 7.5 μg/ml) was 54% and the Test/Control activity class ([12]; 7.5 μg/ml) was “− (− (T/C = 50))”. The “Test/Control (%)” value ([12]; 23. μg/ml) was 7%, the Test/Control activity class ([12]; 23. μg/ml) was “+++ (+++ (T/C < 10))” and the “Test/Control (%)” value ([12]; 75. μg/ml) was 3%. The Test/Control activity class ([12]; 75. μg/ml) was “+++ (+++ (T/C < 10))”, the “Test/Control (%)” value ([12]; .75 μg/ml) was 90% and the Test/Control activity class ([12]; .75 μg/ml) was “− (− (T/C = 50))”.

— patent publication US20100279990A1, “ANTIPROLIFERATIVE COMPOUNDS, COMPOSITIONS AND METHODS OF USE” (RAMOT AT TEL-AVIV UNIVERSITY LTD., priority 2006, published 2010)
